Legend:
[1] = refractive index (Na D-line) (dimensionless); xn = mol fraction of the nth substance listed; conditions: 101 kPa, Liquid, Standard Abbe refractometry
[2] = relative permittivity at various frequencies (dimensionless); xn = mol fraction of the nth substance listed; conditions: 101 kPa, Liquid, Frequency=1 MHz, Parallel plate capacitor

CCCCCCN [1-hexanamine] + CCCCO
Conditions | refractive index, 293.15 K | refractive index, 298.15 K | refractive index, 303.15 K | relative permittivity, 293.15 K | relative permittivity, 298.15 K | relative permittivity, 303.15 K
[1], x2 = 0 | 1.4181 | 1.41565 | 1.41322 | – | – | –
[1], x2 = 0.0552 | 1.41812 | 1.41564 | 1.41324 | – | – | –
[1], x2 = 0.0896 | 1.418 | 1.41556 | 1.41319 | – | – | –
[1], x2 = 0.1588 | 1.41781 | 1.41542 | 1.41306 | – | – | –
[1], x2 = 0.1967 | 1.41768 | 1.41529 | 1.41294 | – | – | –
[1], x2 = 0.3035 | 1.41702 | 1.4147 | 1.4124 | – | – | –
[1], x2 = 0.4077 | 1.41603 | 1.41381 | 1.41148 | – | – | –
[1], x2 = 0.4984 | 1.41487 | 1.41267 | 1.4104 | – | – | –
[1], x2 = 0.6004 | 1.41298 | 1.41079 | 1.40852 | – | – | –
[1], x2 = 0.6977 | 1.41065 | 1.40845 | 1.40621 | – | – | –
[1], x2 = 0.7982 | 1.40746 | 1.40534 | 1.40316 | – | – | –
[1], x2 = 0.8451 | 1.40577 | 1.40368 | 1.40155 | – | – | –
[1], x2 = 0.8996 | 1.40359 | 1.40158 | 1.39949 | – | – | –
[1], x2 = 0.9461 | 1.40166 | 1.39965 | 1.39765 | – | – | –
[2], x2 = 0 | – | – | – | 3.965 | 3.904 | 3.845
[2], x2 = 0.051 | – | – | – | 4.258 | 4.186 | 4.12
[2], x2 = 0.0969 | – | – | – | 4.538 | 4.46 | 4.385
[2], x2 = 0.1402 | – | – | – | 4.828 | 4.739 | 4.656
[2], x2 = 0.2052 | – | – | – | 5.294 | 5.19 | 5.094
[2], x2 = 0.3095 | – | – | – | 6.164 | 6.028 | 5.898
[2], x2 = 0.4059 | – | – | – | 7.139 | 6.965 | 6.797
[2], x2 = 0.5054 | – | – | – | 8.352 | 8.121 | 7.905
[2], x2 = 0.593 | – | – | – | 9.623 | 9.333 | 9.058
[2], x2 = 0.6983 | – | – | – | 11.376 | 11.005 | 10.656
[2], x2 = 0.8047 | – | – | – | 13.472 | 13.003 | 12.566
[2], x2 = 0.8525 | – | – | – | 14.558 | 14.054 | 13.565
[2], x2 = 0.9035 | – | – | – | 15.741 | 15.182 | 14.656
[2], x2 = 0.946 | – | – | – | 16.795 | 16.197 | 15.632
